These results are taken from publication PMC11844072, “Novel 5,6-dichlorobenzimidazole derivatives as dual BRAFWT and BRAFV600E inhibitors: design, synthesis, anti-cancer activity and molecular dynamics simulations” (BMC Chemistry, 2025).

What all share (assay): NCI 60 single concentration growth inhibition
Common to all, as to assay type: cell-based, human

Assay [1] relates to NCI-H226. The conditions noted are these: NCI-H226, Non-small cell lung cancer; for GI%: 10 μM; for inhibition at 10 µM: Homo sapiens, read-out: GI%. A digest of the protocol:
(§1)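 One-concentration growth inhibition used 10 µM over 48 h in RPMI 1640/5% FBS, with sulforhodamine B protein staining as the end point. Percent growth is expressed relative to untreated control cells.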

Assay [2] concerns CAKI-1. As to conditions: CAKI-1, Renal cancer; for GI%: 10 μM; for inhibition at 10 µM: Homo sapiens, read-out: GI%. A digest of the protocol:
as §1

Assay [3] relates to SF-539. As to conditions: SF-539, CNS cancer; for GI%: 10 μM; for inhibition at 10 µM: Homo sapiens, read-out: GI%. The procedure, abridged: as §1
The subject of assay [4] is RXF 393. As to conditions: RXF 393, Renal cancer; for GI%: 10 μM; for inhibition at 10 µM: Homo sapiens, read-out: GI%. A digest of the protocol:
as §1

The subject of assay [5] is EKVX. The conditions noted are these: Non-small cell lung cancer; for GI%: 10 μM; for inhibition at 10 µM: Homo sapiens, read-out: GI%. A digest of the protocol: as §1
Assay [6] concerns SK-MEL-28. The conditions noted are these: SK-MEL-28, Melanoma; for GI%: 10 μM; for inhibition at 10 µM: Homo sapiens, read-out: GI%. A digest of the protocol: as §1
The subject of assay [7] is MDA-MB-231/ATCC. The conditions noted are these: Breast cancer; for GI%: 10 μM; for inhibition at 10 µM: Homo sapiens, read-out: GI%. The procedure, abridged:
as §1

The subject of assay [8] is MCF7. The conditions noted are these: MCF7, Breast cancer; for GI%: 10 μM; for inhibition at 10 µM: Homo sapiens, read-out: GI%. The procedure, abridged: as §1
The test system of assay [9] is NCI-H23. The conditions noted are these: NCI-H23, Non-small cell lung cancer; for GI%: 10 μM; for inhibition at 10 µM: Homo sapiens, read-out: GI%. A digest of the protocol:
as §1

Assay [10] relates to PC-3. The conditions noted are these: PC-3, Prostate cancer; for GI%: 10 μM; for inhibition at 10 µM: Homo sapiens, read-out: GI%. The procedure, abridged:
as §1

Assay [11] relates to UACC-62. The conditions noted are these: UACC-62, Melanoma; for GI%: 10 μM; for inhibition at 10 µM: Homo sapiens, read-out: GI%. A digest of the protocol:
as §1

Assay [12] deals with MDA-MB-435. As to conditions: MDA-MB-435, Melanoma; for GI%: 10 μM; for inhibition at 10 µM: Homo sapiens, read-out: GI%. A digest of the protocol: as §1
Assay [13] relates to A549/ATCC. As to conditions: Non-small cell lung cancer; for GI%: 10 μM; for inhibition at 10 µM: Homo sapiens, read-out: GI%. A digest of the protocol:
as §1

In assay [14] the test system is T-47D. The conditions noted are these: Breast cancer; for GI%: 10 μM; for inhibition at 10 µM: Homo sapiens, T47D, read-out: GI%. The procedure, abridged: as §1
The test system of assay [15] is OVCAR-5. As to conditions: OVCAR-5, Ovarian cancer; for GI%: 10 μM; for inhibition at 10 µM: Homo sapiens, read-out: GI%. A digest of the protocol:
as §1

The subject of assay [16] is HCT-116. The conditions noted are these: HCT-116, Colon cancer; for GI%: 10 μM; for inhibition at 10 µM: Homo sapiens, read-out: GI%. A digest of the protocol: as §1

With “2-(4-((2-(2-(5,6-Dichloro-2-(4-methoxyphenyl)-1H-benzo[d]imidazol-1-yl)acetyl)hydrazono)methyl) -2-methoxyphenoxy)acetic acid [Compound 10m]”, the GI% in assay [1] was 11.67%; in assay [2], “– (GI% < 5%)”; in [3] it was “– (GI% < 5%)”; in assay [4], “– (GI% < 5%)”; in assay [5], “– (GI% < 5%)”; in [6], “– (GI% < 5%)”. In addition, the GI% entry in assay [7] is “– (GI% < 5%)”; in assay [8] it was 9.09%; in [9] it was 8.00%; in assay [10], “– (GI% < 5%)”; in assay [11], 6.42%; in assay [12] it was “– (GI% < 5%)”. In addition, the GI% result in [13], in assay [14], in assay [15] and in assay [16] was “– (GI% < 5%)” in each case.

As for “2-(5-((2-(2-(5,6-Dichloro-2-(4-methoxyphenyl)-1H-benzo[d]imidazol-1-yl)acetyl)hydrazono)methyl)-2-methoxyphenoxy)acetic acid [Compound 10n]”, the GI% in [1] is 10.07%; in [2], “– (GI% < 5%)”; in assay [3], “– (GI% < 5%)”; in assay [4] it was “– (GI% < 5%)”; in assay [5], “– (GI% < 5%)”; in assay [6], “– (GI% < 5%)”. For the same molecule, the GI% in assay [7] was 11.50%; in assay [8], 14.21%; in [9], 9.67%; in assay [10] it was 10.81%; in [11] it was 9.71%; in assay [12], “– (GI% < 5%)”. For the same molecule, the GI% result in assay [13] is listed as “– (GI% < 5%)”; in assay [14], “– (GI% < 5%)”; in assay [15] it was “– (GI% < 5%)”; in assay [16], 6.00%.

With “3-(4-((2-(2-(5,6-Dichloro-2-(4-methoxyphenyl)-1H-benzo[d]imidazol-1-yl)acetyl)hydrazono)methyl)phenoxy)propanoic acid [Compound 10i]”, the GI% is 23.02% in assay [1]; 10.19% in [2]; “– (GI% < 5%)” in assay [3]; “– (GI% < 5%)” in [4]; 20.53% in assay [5]; “– (GI% < 5%)” in assay [6]. The GI% came to 12.19% in assay [7]; 28.47% in assay [8]; 13.85% in assay [9]; 19.27% in assay [10]; 10.17% in assay [11]; 7.59% in assay [12]. Moreover, the GI% entry in assay [13] is listed as “– (GI% < 5%)”; in assay [14] it was 27.22%; in assay [15], “– (GI% < 5%)”; in assay [16], 11.45%.

As for `COc1ccc(-c2nc3cc(Cl)c(Cl)cc3n2CC(=O)NN=Cc2cccc(O)c2)cc1` [Compound 10a, 2-(5,6-Dichloro-2-(4-methoxyphenyl)-1H-benzo[d]imidazol-1-yl)-N'-(3-hydroxybenzylidene)acetohydrazide], the inhibition at 10 µM in [1] stood at 43.7%; in [2] it was 55%; in assay [3] it was 36.5%; in [4], 44.4%; in [5], 76.6%; in [6], 39.3%. In addition, the inhibition at 10 µM in assay [7] came to 20%; in assay [8], 80.6%; in [9], 53.8%; in assay [10], 57.8%; in assay [11] it was 40%; in assay [12] it was 45.9%. The inhibition at 10 µM turned out to be 62.5% in assay [13], 69.7% in [14], 20.5% in assay [15] and 59.6% in assay [16].

On to `COc1ccc(-c2nc3cc(Cl)c(Cl)cc3n2CC(=O)NN=Cc2ccc(O)cc2)cc1` [Compound 10b, 2-(5,6-Dichloro-2-(4-methoxyphenyl)-1H-benzo[d]imidazol-1-yl)-N'-(4-hydroxybenzylidene)acetohydrazide], for which the inhibition at 10 µM came out at 35.5% in assay [1]; 57.2% in assay [2]; 32.5% in assay [3]; 41.2% in assay [4]; 52.6% in assay [5]; 26.4% in [6]. Besides, the inhibition at 10 µM in assay [7] was found to be 21.2%; in assay [8], 74.2%; in assay [9], 20.3%; in assay [10] it was 40.7%; in assay [11], 38%; in assay [12], 39.1%. The inhibition at 10 µM in [13] was 57.2%; in [14], 56.4%; in assay [15], under 5%; in [16], 45.1%.

Turning to `COc1ccc(-c2nc3cc(Cl)c(Cl)cc3n2CC(=O)NN=Cc2cccc(OC)c2)cc1` [Compound 10c, 2-(5,6-Dichloro-2-(4-methoxyphenyl)-1H-benzo[d]imidazol-1-yl)-N'-(3-methoxybenzylidene)acetohydrazide], the inhibition at 10 µM in assay [1] was 17.1%; in assay [2] it was 43.5%; in assay [3], 24.4%; in [4] it was 23.1%; in assay [5] it was 30.4%; in [6] it was 20.5%. In addition, the inhibition at 10 µM came out at 15.1% in assay [7]; 56.6% in assay [8]; 10.2% in [9]; 29.5% in [10]; 37.2% in assay [11]; 33% in assay [12]. The inhibition at 10 µM was 36.1% in assay [13], 45.8% in assay [14], under 5% in [15] and 37.9% in assay [16].

As to `COc1ccc(C=NNC(=O)Cn2c(-c3ccc(OC)cc3)nc3cc(Cl)c(Cl)cc32)cc1` [Compound 10d, 2-(5,6-Dichloro-2-(4-methoxyphenyl)-1H-benzo[d]imidazol-1-yl)-N'-(4-methoxybenzylidene)acetohydrazide], the inhibition at 10 µM turned out to be 33.9% in assay [1]; 52% in [2]; 34.2% in [3]; 38.7% in assay [4]; 76.8% in [5]; 33.5% in assay [6]. In addition, the inhibition at 10 µM in assay [7] was 27.4%; in assay [8] it was 81.5%; in assay [9], 50.9%; in [10] it was 68.5%; in assay [11], 34.1%; in assay [12] it was 41.4%. In addition, the inhibition at 10 µM in assay [13] came out at 59.4%; in assay [14], 67.2%; in [15], 21.5%; in assay [16], 61.3%.

Take `COc1ccc(-c2nc3cc(Cl)c(Cl)cc3n2CC(=O)NN=Cc2cccc(OCC(=O)O)c2)cc1` [Compound 10e, 2-(3-((2-(2-(5,6-Dichloro-2-(4-methoxyphenyl)-1H-benzo[d]imidazol-1-yl)acetyl)hydrazono)methyl)phenoxy)acetic acid]: the inhibition at 10 µM in assay [1], in assay [2], in assay [3], in assay [4], in assay [5] and in [6] was under 5% in each case. The inhibition at 10 µM in assay [7] was under 5%; in [8] it was 13.6%; in [9] it was 5.12%; in assay [10], under 5%; in assay [11] it was under 5%; in assay [12], under 5%. Besides, the inhibition at 10 µM in assay [13], in assay [14], in [15] and in assay [16] was under 5% throughout.
